Calls of active or inactive are those of the source.
Key:
cells [1] = assay type: functional, cell-based
cells [2] = assay type: functional, cell-based; remark: listed apart in the source
[3] = inhibitors of PGC1a acetylation in cells, dose response, cell-based, cherry-picked samples (AID 720514); assay type: functional;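 further: potency may reflect raised or lowered acetylation signal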
[4] = C. albicans growth with fluconazole, confirmation, fluorescence, retest (AID 2467); assay type: functional, cell-based
[5] = NIH-3T3 fibroblast cytotoxicity, dose response, cytotoxicity control, cell-based, fluorescence, Alamar Blue, secondary assay (AID 2327); assay type: functional;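 further: NIH-3T3 mouse fibroblasts cultured with fluconazole at 8 µg/mL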
[6] = biological target: T1, High affinity choline transporter 1 (Homo sapiens, UniProt Q9GZV3); experiment: CHT inhibitors, dose response, cell-based, 5-point CRC, membrane potential dye (AID 504840); assay type: functional
T1 sequence (Q9GZV3 whole entry): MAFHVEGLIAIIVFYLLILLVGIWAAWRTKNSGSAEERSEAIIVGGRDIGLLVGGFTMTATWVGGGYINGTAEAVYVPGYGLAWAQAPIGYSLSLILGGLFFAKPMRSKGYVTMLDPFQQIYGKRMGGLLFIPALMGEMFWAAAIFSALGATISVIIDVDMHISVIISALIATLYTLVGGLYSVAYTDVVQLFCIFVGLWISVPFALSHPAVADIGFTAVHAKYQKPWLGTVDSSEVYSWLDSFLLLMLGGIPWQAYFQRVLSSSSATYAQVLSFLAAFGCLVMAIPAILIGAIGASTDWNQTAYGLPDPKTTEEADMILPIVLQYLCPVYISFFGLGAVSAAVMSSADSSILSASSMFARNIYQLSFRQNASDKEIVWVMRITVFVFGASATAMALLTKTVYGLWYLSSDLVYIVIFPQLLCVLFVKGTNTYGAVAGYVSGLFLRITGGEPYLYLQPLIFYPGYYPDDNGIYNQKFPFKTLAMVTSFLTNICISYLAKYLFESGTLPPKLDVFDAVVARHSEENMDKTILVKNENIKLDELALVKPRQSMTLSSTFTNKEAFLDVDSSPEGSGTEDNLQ

[7] = biological target: T2, DNA repair protein RAD52 homolog (Homo sapiens, UniProt P43351); assay type: functional, biochemical
T2 sequence (P43351 whole entry): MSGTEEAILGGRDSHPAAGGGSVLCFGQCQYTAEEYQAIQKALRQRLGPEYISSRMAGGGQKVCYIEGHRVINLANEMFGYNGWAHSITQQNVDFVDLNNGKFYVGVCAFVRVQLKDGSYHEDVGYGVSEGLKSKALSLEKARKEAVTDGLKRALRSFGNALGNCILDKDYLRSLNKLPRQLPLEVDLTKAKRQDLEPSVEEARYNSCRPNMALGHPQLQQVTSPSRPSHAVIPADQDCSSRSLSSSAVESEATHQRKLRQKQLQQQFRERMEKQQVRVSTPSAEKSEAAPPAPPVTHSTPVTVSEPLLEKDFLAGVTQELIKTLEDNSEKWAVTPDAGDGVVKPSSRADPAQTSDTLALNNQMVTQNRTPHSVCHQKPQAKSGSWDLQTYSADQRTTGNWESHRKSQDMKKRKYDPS

[8] = biological target: T3, Ubiquitin-conjugating enzyme E2 N (Homo sapiens, UniProt P61088); assay type: functional;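 further: Dose-response confirmation in a TR-FRET assay detecting UBC13-driven polyubiquitin chain formation, inhibition measured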
T3 sequence (P61088 whole entry): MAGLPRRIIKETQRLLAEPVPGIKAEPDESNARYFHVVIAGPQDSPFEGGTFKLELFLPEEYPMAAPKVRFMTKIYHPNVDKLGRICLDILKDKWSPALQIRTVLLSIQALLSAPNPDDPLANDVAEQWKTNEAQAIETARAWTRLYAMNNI

[9] = inhibitors of intracellular T. cruzi replication, confirmation, NIH3T3 host cells, beta-gal luminescence (AID 2044); assay type: functional, cell-based;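 further: intracellular parasites grown in NIH/3T3 mouse fibroblasts as host cells; luminescent beta-galactosidase reporter signal from transgenic T. cruzi replicating inside host cells; inhibitors lower the luminescence signal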
[10] = biological target: T4, Histone-lysine N-methyltransferase NSD2 (Homo sapiens, UniProt O96028); assay type: biochemical
T4 sequence (O96028 whole entry): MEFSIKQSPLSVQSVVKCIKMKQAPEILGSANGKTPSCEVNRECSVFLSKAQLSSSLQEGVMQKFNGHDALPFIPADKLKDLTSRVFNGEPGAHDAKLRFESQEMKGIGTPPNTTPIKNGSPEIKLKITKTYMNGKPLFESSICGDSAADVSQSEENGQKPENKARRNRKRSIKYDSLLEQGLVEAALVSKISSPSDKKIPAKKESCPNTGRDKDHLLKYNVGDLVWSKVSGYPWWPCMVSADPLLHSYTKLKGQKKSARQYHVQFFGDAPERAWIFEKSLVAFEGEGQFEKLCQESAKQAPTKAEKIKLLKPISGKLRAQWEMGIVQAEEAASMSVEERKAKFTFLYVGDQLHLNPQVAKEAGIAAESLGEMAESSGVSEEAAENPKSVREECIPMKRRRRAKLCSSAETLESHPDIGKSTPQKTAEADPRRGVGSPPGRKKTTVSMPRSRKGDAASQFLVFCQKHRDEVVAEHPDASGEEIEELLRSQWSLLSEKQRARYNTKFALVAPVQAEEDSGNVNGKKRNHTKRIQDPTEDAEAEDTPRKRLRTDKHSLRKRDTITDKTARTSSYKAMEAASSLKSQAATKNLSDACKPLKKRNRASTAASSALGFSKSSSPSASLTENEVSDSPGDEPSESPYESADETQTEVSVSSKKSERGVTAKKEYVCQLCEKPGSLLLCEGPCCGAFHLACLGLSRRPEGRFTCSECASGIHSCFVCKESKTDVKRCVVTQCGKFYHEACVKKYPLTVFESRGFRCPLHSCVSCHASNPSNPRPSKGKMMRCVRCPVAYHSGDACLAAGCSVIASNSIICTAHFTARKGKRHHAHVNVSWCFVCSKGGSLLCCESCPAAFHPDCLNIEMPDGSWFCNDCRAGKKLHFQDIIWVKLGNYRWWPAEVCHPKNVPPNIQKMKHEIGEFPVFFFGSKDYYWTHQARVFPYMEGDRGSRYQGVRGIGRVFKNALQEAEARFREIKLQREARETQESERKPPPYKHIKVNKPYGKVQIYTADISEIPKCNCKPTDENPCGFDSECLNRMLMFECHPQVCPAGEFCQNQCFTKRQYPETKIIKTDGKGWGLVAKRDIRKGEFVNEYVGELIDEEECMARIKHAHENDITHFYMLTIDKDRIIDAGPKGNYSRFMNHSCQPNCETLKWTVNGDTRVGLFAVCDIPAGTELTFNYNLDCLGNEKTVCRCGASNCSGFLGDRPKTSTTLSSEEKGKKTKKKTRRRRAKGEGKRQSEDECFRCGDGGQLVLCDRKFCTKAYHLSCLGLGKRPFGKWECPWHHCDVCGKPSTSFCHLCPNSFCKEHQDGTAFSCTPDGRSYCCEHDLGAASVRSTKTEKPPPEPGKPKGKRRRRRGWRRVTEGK

[11] = cytotoxicity toward NIH3T3 fibroblasts, dose response, counter-screen, cell-based, ATP luminescence, mouse fibroblasts (AID 2010); assay type: functional;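 further: cells exposed to compound for about 90 hours before reading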
Protein RecA = biological target: T5, Protein RecA (Mycobacterium tuberculosis, UniProt P9WHJ3); experiment: Fluorescence Cell-Free Homogeneous Dose Retest to Identify Inhibitors of RecA-Intein Splicing Activity. [Related pubchem assays (depositor defined):AID2097, AID2223, AID489010, AID492950]; assay type: functional
T5 sequence (P9WHJ3 whole entry): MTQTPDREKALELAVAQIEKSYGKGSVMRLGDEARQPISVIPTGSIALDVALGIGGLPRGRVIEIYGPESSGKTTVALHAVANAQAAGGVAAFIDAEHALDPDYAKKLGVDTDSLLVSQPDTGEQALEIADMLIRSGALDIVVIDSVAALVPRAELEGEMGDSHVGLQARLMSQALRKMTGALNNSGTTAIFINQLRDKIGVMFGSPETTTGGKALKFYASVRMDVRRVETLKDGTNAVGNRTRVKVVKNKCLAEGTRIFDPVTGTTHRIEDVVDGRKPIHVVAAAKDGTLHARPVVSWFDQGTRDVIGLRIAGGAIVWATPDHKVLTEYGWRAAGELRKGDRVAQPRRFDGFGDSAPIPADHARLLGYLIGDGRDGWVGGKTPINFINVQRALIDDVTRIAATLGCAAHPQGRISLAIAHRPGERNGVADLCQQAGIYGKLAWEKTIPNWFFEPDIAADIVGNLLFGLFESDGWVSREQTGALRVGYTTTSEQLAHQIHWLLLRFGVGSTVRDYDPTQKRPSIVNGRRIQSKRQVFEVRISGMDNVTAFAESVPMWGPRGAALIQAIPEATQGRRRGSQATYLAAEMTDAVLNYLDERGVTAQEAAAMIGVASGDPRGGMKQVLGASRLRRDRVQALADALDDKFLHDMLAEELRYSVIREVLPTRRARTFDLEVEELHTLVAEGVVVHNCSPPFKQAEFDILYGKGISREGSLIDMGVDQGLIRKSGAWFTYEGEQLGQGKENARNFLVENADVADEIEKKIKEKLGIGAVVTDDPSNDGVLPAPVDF

[12] = cytotoxicity in HEK-293T cells, dose response, cytotoxicity control for TCR NF-kB inhibitor project, luminescence, T-cell screen hits (AID 489026); assay type: functional, cell-based;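 further: cells exposed to compound about 14 hours before the viability readout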
[13] = microbe, parasite or virus in culture; assay type: functional; conditions: Mycobacterium tuberculosis
[14] = biological target: T6, Heat shock factor protein 1 (Mus musculus, UniProt P38532); experiment: HSF1 potentiators in luciferase reporter cells, confirmation, cell-based, NIH3T3, luminescence, dose retest (AID 435004); assay type: functional;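 further: stress induced by proteasome inhibitor MG132 added 30 min after compound; luciferase reporter driven by HSF1 response element in NIH3T3 cells; actives raise luminescence as potentiators of the MG132 stress response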
T6 sequence (P38532 whole entry): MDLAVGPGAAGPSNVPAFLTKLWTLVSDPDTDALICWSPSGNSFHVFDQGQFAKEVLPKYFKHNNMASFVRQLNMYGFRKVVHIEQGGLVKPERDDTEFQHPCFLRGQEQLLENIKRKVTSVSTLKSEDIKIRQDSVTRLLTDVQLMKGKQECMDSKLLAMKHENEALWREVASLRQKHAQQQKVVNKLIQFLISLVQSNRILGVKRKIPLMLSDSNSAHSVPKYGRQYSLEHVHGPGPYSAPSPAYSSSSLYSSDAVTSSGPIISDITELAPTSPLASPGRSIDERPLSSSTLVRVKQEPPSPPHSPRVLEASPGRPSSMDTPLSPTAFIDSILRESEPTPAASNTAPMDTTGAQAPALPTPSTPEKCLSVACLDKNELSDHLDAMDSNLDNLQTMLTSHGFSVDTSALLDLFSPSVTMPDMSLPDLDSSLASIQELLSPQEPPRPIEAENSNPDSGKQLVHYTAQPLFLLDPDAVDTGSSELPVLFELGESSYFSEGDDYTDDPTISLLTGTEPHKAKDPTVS

[15] = biological target: T7, Replicative DNA helicase DnaB (Mycobacterium tuberculosis, UniProt P9WMR3); experiment: DnaB intein splicing inhibitors, dose response, biochemical, cell-free fluorescence (AID 449749); assay type: functional
T7 sequence (P9WMR3 whole entry): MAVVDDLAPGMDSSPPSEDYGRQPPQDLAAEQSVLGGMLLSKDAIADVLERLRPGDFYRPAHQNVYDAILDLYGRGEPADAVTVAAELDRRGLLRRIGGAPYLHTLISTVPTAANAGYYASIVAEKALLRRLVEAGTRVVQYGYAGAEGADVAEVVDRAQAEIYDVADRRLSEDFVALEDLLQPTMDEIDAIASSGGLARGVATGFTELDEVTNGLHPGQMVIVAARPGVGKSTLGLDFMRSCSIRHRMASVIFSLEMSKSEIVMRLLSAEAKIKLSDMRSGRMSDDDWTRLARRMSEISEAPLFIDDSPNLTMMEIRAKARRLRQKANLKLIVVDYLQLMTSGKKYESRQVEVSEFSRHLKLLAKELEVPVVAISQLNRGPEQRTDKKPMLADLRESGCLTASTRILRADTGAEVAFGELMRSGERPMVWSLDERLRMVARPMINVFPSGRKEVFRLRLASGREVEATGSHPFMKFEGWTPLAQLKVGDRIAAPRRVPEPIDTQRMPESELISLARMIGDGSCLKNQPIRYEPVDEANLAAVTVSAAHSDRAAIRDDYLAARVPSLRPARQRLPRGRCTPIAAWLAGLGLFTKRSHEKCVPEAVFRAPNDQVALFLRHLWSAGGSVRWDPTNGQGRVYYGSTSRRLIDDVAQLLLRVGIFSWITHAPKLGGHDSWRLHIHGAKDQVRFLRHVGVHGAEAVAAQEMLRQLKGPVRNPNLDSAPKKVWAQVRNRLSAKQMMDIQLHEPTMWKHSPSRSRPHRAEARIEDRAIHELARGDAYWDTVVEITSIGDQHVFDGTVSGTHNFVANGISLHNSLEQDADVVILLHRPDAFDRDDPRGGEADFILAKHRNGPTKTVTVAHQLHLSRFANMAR

With `CCCCCCn1nc(C(=O)Nc2nc3c(s2)CCCC3)c2ccccc2c1=O` the EC50 (cells [1]) was 115 µM (active) and the EC50 (cells [2]) was > 350 µM (not active).

With `CC1CCN(C(=O)CS(=O)(=O)Cc2ccccc2)CC1` the EC50 (cells [1]) was 273 µM (active) and the EC50 (cells [2]) was > 350 µM (not active).

In the case of `O=C(c1ccc(Cl)cc1)C(Cn1cncn1)C(Sc1ccccc1)c1ccccc1` (centres undefined), the AC50 [3] is reported as 13 µM (active).

In the case of `CC(=O)N1CCC(=NNC(=O)c2cc3ccccc3cc2O)CC1`, the EC50 (cells [1]) is reported as 22.2 µM (active), the EC50 [4] is reported as > 38 µM (not active) and the EC50 (cells [2]) is reported as > 350 µM (not active). The EC50 [5] was > 150 µM (inactive).

In the case of `CCOC(=O)c1sc(=S)n(-c2ccccc2)c1C`, the EC50 (cells [1]) is reported as > 350 µM (not active) and the EC50 (cells [2]) is reported as > 350 µM (not active).

In the case of `CCN(CCCNC(=O)CCNC(=O)Cn1ccc2ccccc2c1=O)c1ccccc1`, the EC50 (cells [1]) is reported as > 350 µM (not active) and the EC50 (cells [2]) is reported as > 350 µM (not active).

With `CCN1CCN(CCNC(=O)c2ccc3nc(-c4cccc(C)c4)c(-c4cccc(C)c4)nc3c2)CC1` the IC50 [6] was 3.76 µM (active), the AC50 [7] was 13.5 µM (active) and the IC50 [8] was > 20 µM (inactive).

For `CCN(CC)CCNc1ncnc2c1sc1nc(N3CCCC3)c3c(c12)CC(C)(C)OC3`, the AC50 [7] was 4.72 µM (active), the EC50 [9] was 2.86 µM (active) and the AC50 [10] was 19.7 µM (active). For the same compound, the EC50 [11] was 10.2 µM (active).

With `CCCSc1nnc(Sc2nnnn2-c2ccccc2)s1` the EC50 (Protein RecA) was 14.5 µM (active), the AC50 [3] was 0.771 µM (active) and the IC50 [12] was > 80 µM (inactive). For the same compound, the CC50 [13] was 6.83 µM (active), the EC50 [14] was 22 µM (active) and the AC50 [15] was 12.5 µM (active).

In the case of `C[C@@H]1CN([C@H](C)CO)C(=O)c2cc(C3=CCCCC3)cnc2O[C@@H]1CN(C)Cc1ccccc1`, the AC50 [3] is reported as 28 µM (active).

For `Cc1cc(C)cc(N(CC(=O)Nc2ccccc2C(=O)N2CCOCC2)S(C)(=O)=O)c1`, the EC50 (cells [1]) was > 350 µM (not active) and the EC50 (cells [2]) was > 350 µM (not active).
